Measured values from patent US20200147116A1, “Use of Paeoniflorin-6'-O-benzenesulfonate in treatment of Sjögren's syndrome” (NINGBO ZHIMING BIOTECHNOLOGY CO., LTD., priority 2017, published 2020).
Marks after values point to notes of the source that are not given here.

Assays:
Format in all cases: in vivo
[1] = system: SS mice; assay: Organic indexes (spleen, submaxillary gland, thymus) in SS mice
From the text: 2 Sjögren's syndrome model mice: C57BL/6 female mice housed in a SPF environment with successful modeling (The animal model was made via repeated multi-point intracutaneous injection of submaxillary gland homogenate of homologous mice to tail and back of mice). The animal model was made via repeated multi-point intracutaneously injection of submaxillary gland homogenate of homologous mice to tail and back of mice, and the mice with successful modeling were randomly assigned to each group according to comprehensive conditions of mice. At the same time, the average weight and status of each group of mice should be as close as possible. Paeoniflorin-6′-O-benzenesulfonate, white crystalline powder, purity 98.5%, was dissolved in trace ethanol (75 mg of CP-25 was soluble in 40 μl of ethanol), and then sodium carboxymethylcellulose was added to formulate a suspension of CP-25. Corresponding dose gradient, low dose (17.5 mg/kg), medium dose (35 mg/kg) and high dose (70 mg/kg) of said pharmaceutical should be prepared before medication, stored in 4° C. refrigerator for use. High dose of said pharmaceutical should be incubated for half an hour before use.

[2] = system: spleen B lymphocyte; assay: Spleen B lymphocyte proliferation in SS model mice (FIG. 3)
From the text: FIG. 3 Effects of CP-25 on spleen B lymphocyte proliferation in SS model mice.

[3] = system: NOD mice; assay: Saliva amount in NOD mice; conditions: for Saliva amount in NOD mice, Pre-administration: baseline before administration
Procedure: Before measurement, mice were anesthetized via intraperitoneal injection of 0.05 ml of 2.4% pentobarbital sodium, and the satisfactory anesthesia was smooth breathing, corneal reflex disappearance and limb muscle relaxation. After complete anesthesia, a mouse was placed in slightly tilted trendelenburg position, and its body was kept warm using the heater. The mouse was injected intraperitoneally with 0.1 ml of 0.025 mg/ml Pilocarpine, and 5 min later, a weighed cotton ball was placed in the mouth of the mouse for 10 min. After taking the ball out, the saliva weight of mice was measured by the wet weight method.
Therapeutic effects of on Sjögren's syndrome CP-25 in NOD mice.

[4] = system: submaxillary glands in NOD mice; assay: Pathological grading of submaxillary glands in NOD mice; conditions: for Score: mice with submaxillary gland pathology Grade 0 / Score: mice with submaxillary gland pathology Grade I / Score: mice with submaxillary gland pathology Grade II / Score: mice with submaxillary gland pathology Grade III / Score: mice with submaxillary gland pathology Grade IV: NOD mice
Procedure: Mice were sacrificed after two weeks of administration, and then submaxillary glands of four mice of each group were removed and pathologically observed. At first, the submaxillary gland should be fixed in 10% buffered formalin for 24 h, followed by washing, dehydration and clearing, wax-filling, embedding, sectioning and finally H&E staining. […] Results were graded pathologically.
Note: The histological findings graded of submaxillary glands according to the Chisholm-Mason scale; grade 0, absence of lymphocytic infiltration; grade I, slight lymphocytic infiltration; grade II, moderate lymphocytic infiltration; grade III, one focus of lymphocytic infiltration per 4 mm^2 tissue; grade IV, more than one focus of lymphocytic infiltration per 4 mm^2 tissue (Note: One focus of lymphocytic infiltration has been defined as an aggregate of 50 or more lymphocytes gathered in the labial gland stroma per 4 mm^2 of tissue.

[5] = system: spleen B lymphocytes; assay: Spleen B lymphocyte proliferation in NOD model mice (FIG. 12B)
From the text: FIG. 12 Effects of CP-25 on spleen T and B lymphocyte proliferation in NOD model mice.
A: T lymphocytes; B: B lymphocytes

[6] = system: spleen CD4+ CD25+ FOXP3+ T lymphocytes; assay: Spleen CD4+ CD25+ FOXP3+ T lymphocytes in NOD model mice (FIG. 14)
From the text: FIG. 14 Effects of CP-25 on spleen CD4^+ CD25^+ FOXP3^+ T lymphocytes in NOD model mice.

How did the Spleen index ([1]; 17.5 mg/kg) turn out when `C[C@@]12C[C@@]3(O)O[C@H](O1)C1(COC(=O)c4ccccc4)[C@@H]3CC12OC1OC(COS(=O)(=O)c2ccccc2)C(O)C(O)C1O` (stereo partly shown) [CP-25, Paeoniflorin-6′-O-benzenesulfonate] was run?
Its Spleen index is 9.00 ± 1.61 mg/g.

And the Submaxillary gland index ([1]; 17.5 mg/kg)?
The Submaxillary gland index was 3.56 ± 0.62 mg/g.

And the Thymus index ([1]; 17.5 mg/kg)?
The Thymus index was 1.06 ± 0.31 mg/g.

And the Spleen index ([1]; 35 mg/kg)?
Its Spleen index is 8.92 ± 1.33 mg/g.

And the Submaxillary gland index ([1]; 35 mg/kg)?
The Submaxillary gland index was 3.32 ± 0.66 mg/g.

And the Thymus index ([1]; 35 mg/kg)?
Its Thymus index is 1.31 ± 0.42 mg/g.

And the Spleen index ([1]; 70 mg/kg)?
Its Spleen index is 8.51 ± 1.42 mg/g.

And the Submaxillary gland index ([1]; 70 mg/kg)?
The Submaxillary gland index was 3.24 ± 0.57 mg/g.

And the Thymus index ([1]; 70 mg/kg)?
Its Thymus index is 1.03 ± 0.44 mg/g.

And the “Increasing of submaxillary gland index (in words)” value ([1]; Example 2)?
Its value is “significantly suppress the increasing”.

And the “Spleen B lymphocyte proliferation” value [2]?
The value was “significantly inhibit”.

And the “Saliva amount in NOD mice, One week after administration” value (“Saliva amount in NOD mice, One week” below) ([3]; 17.5 mg/kg)?
The value was 15.20 ± 1.04 mg/each mouse/10 min.

And the “Saliva amount in NOD mice, Two weeks after administration” value (“Saliva amount in NOD mice, Two weeks” for short) ([3]; 17.5 mg/kg)?
Its value is 14.25 ± 1.46 mg/each mouse/10 min.

And the “Saliva amount in NOD mice, One week” value ([3]; 35 mg/kg)?
The value was 15.60 ± 1.50 mg/each mouse/10 min.

What about the “Saliva amount in NOD mice, Two weeks” value ([3]; 35 mg/kg) of the same compound?
Its value is 15.25 ± 1.36 mg/each mouse/10 min.

And the “Saliva amount in NOD mice, One week” value ([3]; 70 mg/kg)?
Its value is 18.20 ± 1.58^#Δ mg/each mouse/10 min.

And the “Saliva amount in NOD mice, Two weeks” value ([3]; 70 mg/kg)?
Its value is 18.25 ± 1.50 mg/each mouse/10 min.

What about the “Saliva amount in NOD mice, Pre-administration” value ([3]; dose group 17.5 mg/kg) of the same compound?
The value was 19.50 ± 1.38 mg/each mouse/10 min.

What about the “Saliva amount in NOD mice, Pre-administration” value ([3]; dose group 35 mg/kg) of the same compound?
The value was 19.33 ± 3.20 mg/each mouse/10 min.

And the “Saliva amount in NOD mice, Pre-administration” value ([3]; dose group 70 mg/kg)?
Its value is 19.51 ± 1.87 mg/each mouse/10 min.

What about the “Saliva amount (in words)” value ([3]; NOD model mice, Example 4) of the same compound?
Its value is “significantly increase”.

And the “Onset time of curative effects versus comparators” value ([3]; NOD model mice, Example 4, saliva amount)?
The value was “earlier than that of TGP, or Pae”.

And the “Score: mice with submaxillary gland pathology Grade 0” value ([4]; 17.5 mg/kg)?
Its value is 0.

And the “Score: mice with submaxillary gland pathology Grade I” value ([4]; 17.5 mg/kg)?
Its value is 0.

And the “Score: mice with submaxillary gland pathology Grade II” value ([4]; 17.5 mg/kg)?
Its value is 0.

And the “Score: mice with submaxillary gland pathology Grade III” value ([4]; 17.5 mg/kg)?
The value was 1.

What about the “Score: mice with submaxillary gland pathology Grade IV” value ([4]; 17.5 mg/kg) of the same compound?
The value was 3.

And the “Score: mice with submaxillary gland pathology Grade 0” value ([4]; 35 mg/kg)?
The value was 0.

What about the “Score: mice with submaxillary gland pathology Grade I” value ([4]; 35 mg/kg) of the same compound?
The value was 0.

And the “Score: mice with submaxillary gland pathology Grade II” value ([4]; 35 mg/kg)?
The value was 0.

And the “Score: mice with submaxillary gland pathology Grade III” value ([4]; 35 mg/kg)?
Its value is 1.

And the “Score: mice with submaxillary gland pathology Grade IV” value ([4]; 35 mg/kg)?
The value was 3.

And the “Score: mice with submaxillary gland pathology Grade 0” value ([4]; 70 mg/kg)?
Its value is 0.

What about the “Score: mice with submaxillary gland pathology Grade I” value ([4]; 70 mg/kg) of the same compound?
The value was 0.

And the “Score: mice with submaxillary gland pathology Grade II” value ([4]; 70 mg/kg)?
Its value is 0.

And the “Score: mice with submaxillary gland pathology Grade III” value ([4]; 70 mg/kg)?
Its value is 3.

What about the “Score: mice with submaxillary gland pathology Grade IV” value ([4]; 70 mg/kg) of the same compound?
The value was 1 ^#.

And the “Pathological changes in submaxillary gland” value ([4]; NOD model mice, Example 6)?
Its value is “apparently ameliorate the pathological changes”.

What about the “Spleen B lymphocyte proliferation” value [5] of the same compound?
Its value is “significantly inhibit”.

And the “Ratio of spleen CD4+ CD25+FOXP3+ Treg lymphocytes” value [6]?
The value was “significantly improve”.
